Reference: US20230157952A1, “METHOD FOR IMPROVING THE STABILITY OF A PHARMACEUTICAL COMPOSITION COMPRISING A HIGH PENETRATION DRUG, AND THE PHARMACEUTICAL COMPOSITION OBTAINED THEREFROM” (Techfields Inc., priority 2020, published 2023)

Tests used:
[1] = Effect of concentration on the stability of the solution (purity over time); conditions: in water at 25° C.
[2] = Effect of temperature (and pH) on the stability of the solution (purity); format: physicochemical; conditions: 7% solution in water

## CCN(CC)CCOC(=O)Cc1ccc(C(=O)c2ccc(C)cc2)n1C.Cl [2-(diethylamino)ethyl 1-methyl-5-(4-methylbenzoyl)-1H-pyrrole-2-acetate•HCl]
[1]; 0.01 wt %
  Purity at Day 3: 82.3%
  Purity at Day 7: 72.2%
  Purity at Day 14: 57.4%
  Purity at Day 21: 45.4%
  Purity at Day 28: 35.7%
  Purity at hr 0: 97.4%
[1]; 0.1 wt %
  Purity at Day 3: 95.6%
  Purity at Day 7: 93.3%
  Purity at Day 14: 88.3%
  Purity at Day 21: 83.5%
  Purity at Day 28: 78.1%
  Purity at hr 0: 97.5%
[1]; 1 wt %
  Purity at Day 3: 95.7%
  Purity at Day 7: 94.6%
  Purity at Day 14: 92.3%
  Purity at Day 21: 90.1%
  Purity at Day 28: 88.6%
  Purity at hr 0: 97.7%
[1]; 3 wt %
  Purity at Day 3: 96.5%
  Purity at Day 7: 96.2%
  Purity at Day 14: 94.8%
  Purity at Day 21: 94.0%
  Purity at Day 28: 92.7%
  Purity at hr 0: 97.9%
[1]; 5 wt %
  Purity at Day 3: 97.2%
  Purity at Day 7: 97.0%
  Purity at Day 14: 96.8%
  Purity at Day 21: 95.6%
  Purity at Day 28: 94.4%
  Purity at hr 0: 97.9%
[1]; 7 wt %
  Purity at Day 3: 97.5%
  Purity at Day 7: 97.2%
  Purity at Day 14: 97.2%
  Purity at Day 21: 96.7%
  Purity at Day 28: 96.5%
  Purity at hr 0: 98.1%
[1]; 8 wt %
  Purity at Day 3: 97.7%
  Purity at Day 7: 97.3%
  Purity at Day 14: 96.9%
  Purity at Day 21: 96.9%
  Purity at Day 28: 96.6%
  Purity at hr 0: 98.1%
[1]; 10 wt %
  Purity at Day 3: 97.9%
  Purity at Day 7: 97.5%
  Purity at Day 14: 97.3%
  Purity at Day 21: 97.1%
  Purity at Day 28: 96.5%
  Purity at hr 0: 98.2%
[1]; 15 wt %
  Purity at Day 3: 97.7%
  Purity at Day 7: 97.6%
  Purity at Day 14: 97.4%
  Purity at Day 21: 97.1%
  Purity at Day 28: 96.8%
  Purity at hr 0: 98.1%
[1]; 20 wt %
  Purity at Day 3: 97.6%
  Purity at Day 7: 97.5%
  Purity at Day 14: 97.2%
  Purity at Day 21: 97.1%
  Purity at Day 28: 96.8%
  Purity at hr 0: 98.0%
[1]; 30 wt %
  Purity at Day 3: 97.7%
  Purity at Day 7: 97.5%
  Purity at Day 14: 97.3%
  Purity at Day 21: 97.0%
  Purity at Day 28: 96.7%
  Purity at hr 0: 98.1%
[1]; 50 wt %
  Purity at Day 3: 97.8%
  Purity at Day 7: 97.5%
  Purity at Day 14: 97.2%
  Purity at Day 21: 96.9%
  Purity at Day 28: 96.8%
  Purity at hr 0: 98.2%
[1]
  Stability when the concentration is 0.1% or lower: not stable
[2]
  Stability of the solution at a temperature higher than 40° C. and a pH lower than 3 or greater than 6: not stable

## CCN(CC)CCOC(=O)C(C)c1ccc2oc(-c3ccc(Cl)cc3)nc2c1.Cl (stereo not shown) [2-(diethylamino)ethyl 2-[(4-chlorophenyl)-5-benzoxazole]propionate•HCl]
[1]; 0.01 wt %
  Purity at Day 3: 84.7%
  Purity at Day 7: 73.9%
  Purity at Day 14: 62.3%
  Purity at Day 21: 52.9%
  Purity at Day 28: 42.9%
  Purity at hr 0: 97.8%
[1]; 0.1 wt %
  Purity at Day 3: 96.7%
  Purity at Day 7: 95.5%
  Purity at Day 14: 91.1%
  Purity at Day 21: 87.2%
  Purity at Day 28: 83.0%
  Purity at hr 0: 97.9%
[1]; 1 wt %
  Purity at Day 3: 97.0%
  Purity at Day 7: 96.0%
  Purity at Day 14: 94.0%
  Purity at Day 21: 92.3%
  Purity at Day 28: 89.9%
  Purity at hr 0: 98.1%
[1]; 3 wt %
  Purity at Day 3: 97.5%
  Purity at Day 7: 97.0%
  Purity at Day 14: 95.7%
  Purity at Day 21: 94.3%
  Purity at Day 28: 92.8%
  Purity at hr 0: 98.3%
[1]; 5 wt %
  Purity at Day 3: 98.0%
  Purity at Day 7: 97.9%
  Purity at Day 14: 97.6%
  Purity at Day 21: 97.0%
  Purity at Day 28: 96.3%
  Purity at hr 0: 98.5%
[1]; 7 wt %
  Purity at Day 3: 98.4%
  Purity at Day 7: 98.2%
  Purity at Day 14: 98.0%
  Purity at Day 21: 97.8%
  Purity at Day 28: 97.4%
  Purity at hr 0: 98.6%
[1]; 8 wt %
  Purity at Day 3: 98.5%
  Purity at Day 7: 98.3%
  Purity at Day 14: 98.1%
  Purity at Day 21: 97.8%
  Purity at Day 28: 97.4%
  Purity at hr 0: 98.6%
[1]; 10 wt %
  Purity at Day 3: 98.4%
  Purity at Day 7: 98.3%
  Purity at Day 14: 98.2%
  Purity at Day 21: 97.7%
  Purity at Day 28: 97.3%
  Purity at hr 0: 98.5%
[1]; 15 wt %
  Purity at Day 3: 98.5%
  Purity at Day 7: 98.3%
  Purity at Day 14: 98.1%
  Purity at Day 21: 97.7%
  Purity at Day 28: 97.5%
  Purity at hr 0: 98.6%
[1]; 20 wt %
  Purity at Day 3: 98.4%
  Purity at Day 7: 98.3%
  Purity at Day 14: 98.2%
  Purity at Day 21: 97.8%
  Purity at Day 28: 97.4%
  Purity at hr 0: 98.5%
[1]; 30 wt %
  Purity at Day 3: 98.5%
  Purity at Day 7: 98.3%
  Purity at Day 14: 98.0%
  Purity at Day 21: 97.7%
  Purity at Day 28: 97.3%
  Purity at hr 0: 98.6%
[1]; 50 wt %
  Purity at Day 3: 98.5%
  Purity at Day 7: 98.3%
  Purity at Day 14: 98.0%
  Purity at Day 21: 97.9%
  Purity at Day 28: 97.5%
  Purity at hr 0: 98.5%
[1]
  Stability when the concentration is 0.1% or lower: not stable
[2]
  Stability of the solution at a temperature higher than 40° C. and a pH lower than 3 or greater than 6: not stable
